Experimental data: patent US20150065575A1, “S100A8/A9 as a Diagnostic Marker and a Therapeutic Target” (Sloan-Kettering Institute for Cancer Research, priority 2012, published 2015)

Experiments:
[1] = tested on: LM2 and CN34LM1 lung metastatic human breast cancer cell lines; assay: Preclinical trial of AC chemotherapy and CXCR2 antagonist in orthotopic lung metastatic breast cancer xenografts; format: in vivo, mice
Description: Data represent average expression±SEM. n=10-13 mice per group. P values were determined by Student's t-test. *p=0.02, **p=0.007.
Data are average foci per field of view (FOV)±SEM. n=5-10 mice per group. Whiskers represent minimum and maximum values. P values were determined by two-tailed Wilcoxon rank-sum test.
Tumor vessel characteristics and lung metastatic foci size and number were quantified using Metamorph software (Molecular Devices) as previously described (DeNardo et al., 2009; Gupta et al., 2007). In brief, 10 random images at 20× magnification were taken per tumor section stained with CD34, MECA32 or Von Willebrand factor by immunohistochemistry. Images were thresholded, stained area was calculated by counting objects per field and vessel characteristics were analyzed using Metamorph measurement module. For quantitating lung metastatic foci area and number, 8-12 random images at 20× magnification were taken per lung section stained with vimentin by immunohistochemistry. A minimum of 5 sections was analyzed per animal across different depths of the tissue. For quantitation, images were thresholded and number of metastatic foci determined. Metastatic foci was considered if they contained more than 5 cells. Foci were counted and analyzed using Metamorph measurement module. […]

PMN = details: similar potencies for both; cited from earlier work

SMILES	lung metastatic burden ([1]; CXCR2 inhibitor combined with AC chemotherapy)	S100A9 expressing cells (immunostaining) ([1]; CXCR2 inhibitor/chemotherapy treatment)	CXCL8- and CXCL1-mediated PMN chemotaxis (PMN)
N#Cc1ccc(NC(=O)Nc2ccccc2Br)c2n[nH]nc12 [CXCR2 inhibitor]	markedly reduced	significant reduction	–
C[C@@H](C(N)=O)c1ccc(OS(=O)(=O)C(F)(F)F)cc1 [4-[(1R)-2-amino-1-methyl-2-oxoethyl]phenyl trifluoromethane sulfonate]	–	–	inhibit
